According to the METLIN SMRT retention time set (Domingo-Almenara et al. 2019):

Experiment: gradient 5% acetonitrile 3 min, to 50% in 2 min, to 85% in 15 min, held 3 min, 100 µL/min
Conditions: column: Zorbax Extend-C18 2.1 x 50 mm; eluents: water / acetonitrile, 0.1% formic acid
Procedure, shortened: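 Values are retention times taken from adduct peaks that software picked and an analyst inspected. The pure standards were run as mixtures of ~100 molecules on HPLC linked to a quadrupole time-of-flight mass spectrometer, in positive and negative ionization mode. A Zorbax Extend-C18 column (2.1 × 50 mm, 1.8 μm) was used at 100 μL/min with water and acetonitrile, each including 0.1% formic acid.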

Row | Compound | RP-LC retention time
1 | O=C(Nc1ccc2c(c1)OCCO2)N1CCCn2nc(-c3cccc(Cl)c3)cc2C1 | 919 s
2 | O=C(CN1CCN(c2ccc(F)cc2)C1=O)NCCCN1CCCC1=O | 611 s
3 | Cc1cc(C)cc(NC(=O)C2CCCN(c3nc4ccsc4c(=O)n3-c3cccc(C)c3)C2)c1 (centres undefined) | 1100 s
4 | CN(CCCNC(=O)C1CCCN(c2ncc(-c3cccc(F)c3)cn2)C1)c1ccccc1 (centres undefined) | 838 s
5 | Cc1cc(F)ccc1NS(=O)(=O)c1c(C)sc(C)c1-c1cc(C(F)(F)F)on1 | 1200 s
6 | CCn1cc(S(=O)(=O)N2CCCC(n3c(C)cnc3-c3ccccc3)C2)cn1 (centres undefined) | 639 s
7 | COc1cccc(CNC(=O)CN2C(=O)C3CCCCN3c3ccc(S(=O)(=O)N(C)C)cc32)c1 (centres undefined) | 887 s
8 | Cc1ccc(-c2nc3cnccn3c2Nc2ccc(Br)cc2)cc1 | 1030 s
9 | O=C(Cn1cc(C(=O)c2ccco2)c2ccccc21)NCc1ccc2c(c1)OCCCO2 | 858 s
10 | O=C(CSc1ccc(S(=O)(=O)c2ccccc2)nn1)Nc1ccc2c(c1)OCO2 | 822 s
11 | O=C(c1ccc(Br)o1)N1CCC2(CC1)OCCS2 | 771 s
12 | O=C(Nc1cc(-c2ccccn2)no1)c1ccc2c(c1)OCO2 | 772 s
13 | CN(C)S(=O)(=O)c1ccc(-c2nnc(C(=O)N3CCC(Cc4ccccc4)CC3)o2)cc1 | 1080 s
14 | Cc1ccc(NC(=O)N2CCC(CCNC(=O)C3(c4ccccc4)CC3)CC2)cc1F | 928 s
15 | Cc1cc(F)ccc1NS(=O)(=O)c1cc2n(c1)CCCN(C)C2=O | 687 s
16 | Cc1c(N2CCCC2)cc2c(c1NC(=O)c1ccccc1Cl)C(C)(C)CC2(C)C | 874 s
17 | Cn1nc(-c2nnc(-c3ccccc3F)o2)c2c1CCN(S(=O)(=O)c1ccccc1Cl)C2 | 928 s
18 | CC(=O)Nc1ccc2c(c1)CN(C(=O)c1ccccc1Cl)C(C(=O)N1CCCC1)C2 (centres undefined) | 657 s
19 | Cc1nccn1C1CN(S(=O)(=O)c2cccc3cccnc23)C1 | 571 s
20 | O=C(Nc1cccc2nsnc12)C1CCN(S(=O)(=O)N2CCCC2)CC1 | 862 s

Row | Compound | RP-LC retention time
21 | Cc1cc(C)cc(-c2nnc(Cc3nc(-c4ccc(Br)cc4)no3)o2)c1 | 1270 s
22 | Cc1ccc(N2CC(C(=O)N3CCC(NS(=O)(=O)c4ccccc4)CC3)CC2=O)cc1C (centres undefined) | 800 s
23 | CCc1ccc(NS(=O)(=O)c2c(C)sc(C)c2-c2n[nH]c(C)c2C)cc1 | 1200 s
24 | COc1ccccc1NC(=O)C12CCC(C)(C(=O)C1)C2(C)C (centres undefined) | 848 s
25 | CCOc1cccc(C2CC(c3ccc(OC)c(OC)c3)=NC3(CCN(C(C)C)CC3)N2)c1O (centres undefined) | 604 s
26 | O=C(Cn1c(C(=O)NCc2ccc(F)cc2F)cccc1=O)NC1CCCC1 | 868 s
27 | CCN1C(=O)CCc2cc(NC(=O)c3cncc(Br)c3)ccc21 | 739 s
28 | Cc1ccc(NC(=O)N2CCc3nc(-c4ccc(F)cc4)ncc3C2)c(C)c1 | 979 s
29 | Cc1noc(C)c1CN1CCN(C(=O)c2ccc3ccccc3n2)CC1 | 588 s
30 | COc1cccc(CCNC(=O)C2CCCN(c3ncnc4c3nc3n4CCCCC3)C2)c1OC (centres undefined) | 758 s
31 | O=C(c1ccncc1)N1CCc2c([nH]c3ccccc23)C1c1ccccc1 (centres undefined) | 862 s
32 | CC(C)CCNS(=O)(=O)c1cc(-c2nc(C(C)(C)C)cs2)cs1 | 1310 s
33 | Cc1cccc(CS(=O)(=O)NCCCN2CCN(c3ccccc3)CC2)c1 | 588 s
34 | COc1ccc(NC(=O)c2cn(-c3cc(N4CCCC4)ncn3)cn2)cc1OC | 748 s
35 | Cc1cccc2nnc(N3CCN(C(=O)c4cc5c(s4)CCCC5)CC3)n12 | 605 s
36 | Cc1nn(-c2nc(CC(=O)N3CCOCC3)cs2)c(C)c1Cl | 842 s
37 | Cc1ccc(NC(=O)N2CCC(n3c(-c4ccoc4)nc4cccnc43)C2)cc1F (centres undefined) | 774 s
38 | O=C(Cn1nc(C(=O)N2CCOCC2)c2ccccc21)NCc1ccc(F)cc1 | 715 s
39 | Cc1cc(C)n(-c2ccnc(N3CCC(C(N)=O)CC3)n2)n1 | 586 s
40 | CCCNC(=O)N1[C@H]2CC[C@@H]1c1cnc(-c3ccc(F)cc3)nc1C2 | 829 s

Row | Compound | RP-LC retention time
41 | Cc1ccc(NS(=O)(=O)c2cc3n(c2)CCCN(C)C3=O)cc1C | 720 s
42 | CCC(C)NC(=O)N1CC(n2cc(C(=O)NCC3CC3)nn2)C1 (centres undefined) | 662 s
43 | CCN1CCN(CCCNC(=O)C2CCCN(c3nnc(-n4cccc4)s3)C2)CC1 (centres undefined) | 572 s
44 | Cc1ccc(S(=O)(=O)N2CC[C@H](c3n[nH]c(C)n3)[C@H](N(C)C)C2)c(C)c1 | 623 s
45 | COc1ccc(C(=O)N2CCCCC2c2nncn2C)cn1 (centres undefined) | 603 s
46 | O=C(Nc1nc(-c2ccc3c(c2)OCO3)cs1)c1ccco1 | 798 s
47 | Fc1ccc(Nc2nc(NCC3CCCO3)nc3c2cnn3-c2ccccc2)cc1 (centres undefined) | 1050 s
48 | O=C(NC1CCCC1)C1c2cccn2CC(=O)N1c1cccc(Cl)c1 (centres undefined) | 870 s
49 | CCCc1nc2cccnc2n1C1CCN(C(=O)NCc2ccccc2)C1 (centres undefined) | 603 s
50 | Cc1ccsc1C(=O)N1C[C@@H](F)C[C@H]1C(=O)N1CCCCC1 | 695 s
51 | COc1ccc(C(=C2C(=O)Nc3ccccc32)c2ccc(OC)cc2)cc1 | 974 s
52 | CC1CCN(S(=O)(=O)c2cccn(CC(=O)N3CCCc4ccccc43)c2=O)CC1 | 910 s
53 | CCOc1ccc(C(=O)N2CCCC2c2nc(-c3ccc(OC)c(OC)c3)no2)cc1OCC (centres undefined) | 916 s
54 | O=C1CN(S(=O)(=O)c2ccc(F)c(Cl)c2)CC2(CCCCC2)N1C1CCCC1 | 1240 s
55 | COc1ccc2[nH]cc(CCNC(=O)c3ccc(N4CCCC4)c(S(=O)(=O)N4CCCC4)c3)c2c1 | 921 s
56 | Clc1ccc(-c2nc(N3CCCC3)c3ccccc3n2)cc1 | 726 s
57 | O=C(Nc1ccc2c(c1)N(C(=O)c1cccs1)CC2)c1ccc2c(c1)OCO2 | 843 s
58 | O=C(CN1CCN(c2nccn2-c2ccccc2F)CC1)Nc1ccc(F)cc1F | 562 s
59 | COc1ccc(N2C(=O)C(O)=C(S(=O)(=O)c3ccccc3)C2c2ccccc2)cc1 (centres undefined) | 854 s
60 | O=C(CC1CCCC1)N1CCN(c2ncccc2-c2nnc(C3CC3)o2)CC1 | 828 s

More lines, now with the values ahead:

Row | RP-LC retention time | Compound
61 | 693 s | OC(COc1ccccc1Cl)Cn1c(C2CC2)nc2ccccc21 (centres undefined)
62 | 916 s | Cc1cc(F)ccc1NC(=O)Cn1cccc1-c1nnc(C2CCC2)o1
63 | 858 s | COc1cccc(-c2cc(=O)n3c4ccccc4n(CC(=O)NC(C)C)c3n2)c1
64 | 618 s | O=C(Cn1nc(Cc2ccncc2)c2ccccc2c1=O)Nc1ccc(Cl)cn1
65 | 876 s | CC(C)c1nnc(NC(=O)CCCOc2ccc(Cl)cc2)s1
66 | 1210 s | O=C1COc2ccc(Cl)cc2N1Cc1nc(-c2ccc(OC(F)(F)F)cc2)no1
67 | 717 s | Cc1ccc(NC(=O)N2CCCC(Cn3c(C4CC4)nc4cccnc43)C2)cc1F (centres undefined)
68 | 905 s | Cc1ccc(CNC(=O)c2ccc(-c3ccsc3)nc2)cc1
69 | 1040 s | CC(C)CCNC(=O)C1(C)CN(S(=O)(=O)c2ccccc2)CC(=O)N1Cc1ccc(Cl)cc1 (centres undefined)
70 | 660 s | Cc1cc(NC(=O)COc2cccc3c(=O)n(C)ccc23)no1
71 | 680 s | Cc1ccc(NC(=O)Cn2c(N3CCOCC3)nc(C)cc2=O)cc1
72 | 1070 s | CCCNC(=O)Cc1c(C)nn(-c2nc(-c3ccc(C)cc3)cs2)c1C
73 | 568 s | O=C(c1ccc(Cl)cc1)N1CCc2nc[nH]c2C1
74 | 970 s | COC(=O)c1ccc(NC(=O)CSc2cc(N3CCN(c4ccccc4OC)CC3)ncn2)cc1
75 | 641 s | CCOC(=O)c1ccc(Nc2c(-c3ccc(OC)cc3)nc3cnccn23)cc1
76 | 1050 s | CN(C)c1nc2cc(C(=O)NC3CCCC3)sc2n1-c1ccc(F)cc1
77 | 1070 s | CCc1nc(-c2csc(S(=O)(=O)N3CCC(C(=O)Nc4ccc(Cl)cc4)CC3)c2)no1
78 | 892 s | Cc1cccc(C)c1NC(=O)Cn1nc(N2CCSCC2)c2ccccc2c1=O
79 | 592 s | Cc1cc(=O)n(CC(=O)Nc2ccc(F)cc2)c(N)n1
80 | 906 s | O=C(C1=NN(CCc2ccccc2)c2cc(Cl)ccc2S1(=O)=O)N1CCOCC1
81 | 989 s | Nc1c(C(=O)Nc2cc(F)ccc2F)nnn1-c1ccccc1
82 | 896 s | Cc1ccccc1NS(=O)(=O)c1cn(C(C)C)c2ncccc12
83 | 609 s | O=C(COc1ccc(F)cc1)NCC(=O)N1CCN(c2ccccn2)CC1
84 | 839 s | CCn1nc(CNC(=O)c2ccc(F)cc2)c2ccccc21
85 | 905 s | COc1ccc(-c2ncc3c(n2)CCN(C(=O)Nc2ccccc2OC)C3)cc1
86 | 670 s | CCN(CC)CCNC(=O)c1nnc(-c2ccc(S(=O)(=O)N3CCCC3)cc2)o1
87 | 896 s | Cc1ccc([N+](=O)[O-])cc1NC(=O)Cc1cc(-c2ccc(F)cc2)on1
88 | 806 s | O=C(O)c1nnn(-c2cccc(Cl)c2)c1C(F)(F)F
89 | 1000 s | COC(=O)c1ccc(C2CC(=O)Nc3c(-c4ccc(OC)cc4)csc32)cc1 (centres undefined)
